From patent publication US7605272B2, “IGF-1R inhibitor” (Kyowa Hakko Kirin Co., Ltd., priority 2005, dated 2009) come the findings set out here.

This test has as its target T1, IGF-1R (Homo sapiens, UniProt P08069).
T1 construct: purchased Upstate Co. 14-465
The test is described as follows: IGF-1R inhibitory activity (kinase reaction, time-resolved fluoroimmunoassay). It counts as biochemical. Particulars: IGF-1R active recombinant enzyme, test compound 10 μmol/L. The method, then:
The IGF-1R inhibitory activity was measured in the following manner.
As IGF-1R, active recombinant enzyme (Catalog No. 14-465) purchased from Upstate Co., was used. To 96 well plate (FIA-PLATE BLACK 96 well FALT-BOTTOM HIGH BINDING, Greiner Bio-one, Catalog No. 655077) coated with NeutroAvidin (Pierce, Catalog No. 31000), biotinylated polyglutamic acid-tyrosine peptide (Nihon Schering K.K., Catalog No. 61GT0BAA) was immobilized and then blocked with 0.25% gelatin to be used as a plate for measuring the kinase reaction. Separately was prepared a solution containing at final concentrations, IGF-1R (200 μg/L), Tris.HCl(pH 7.5)(20 mmol/L), Na3VO4(0.1 mmol/L), MgCl2(1 mmol/L), MnCl2(10 mmol/L), ATP(10 mmol/L), 2-mercaptoethanol (0.04%), BSA(Bovine Serum Albumin) (0.1%), DMSO(0.1%), test compound (10 μmol/L). The solution (each 50 μL) was added to the well of the plate for measuring the kinase reaction and then, enzyme reaction was performed for 30 minutes at 24° C. The plate was washed with TBS-T [10 mmol/L Tris Cl (pH 7.5), 150 mmol/L NaCl, 0.05% Tween 20 (Bio-Rad, Catalog No. 170-6531)] 4 times, then reacted with europium-labeled anti-phosphotyrosine antibody, further washed with TBS-T 4 times and then, measured with time-resolved fluoroimmunoassay (excitation wavelength 340 nm, measuring wavelength 615 nm). The value of a well to which the test compound had not been added was considered as 100% and that of a well where the enzyme and the test compound had not been added was considered as 0%. The relative activity (%) of the well which was added with enzyme and the test compound was measured and by subtracting the calculated value from 100, IGF-1R inhibitory activity of the test compound (%) was determined.

Counter-ions that a name gives are not always drawn.

T1 sequence (P08069 959-1367 limits assumed): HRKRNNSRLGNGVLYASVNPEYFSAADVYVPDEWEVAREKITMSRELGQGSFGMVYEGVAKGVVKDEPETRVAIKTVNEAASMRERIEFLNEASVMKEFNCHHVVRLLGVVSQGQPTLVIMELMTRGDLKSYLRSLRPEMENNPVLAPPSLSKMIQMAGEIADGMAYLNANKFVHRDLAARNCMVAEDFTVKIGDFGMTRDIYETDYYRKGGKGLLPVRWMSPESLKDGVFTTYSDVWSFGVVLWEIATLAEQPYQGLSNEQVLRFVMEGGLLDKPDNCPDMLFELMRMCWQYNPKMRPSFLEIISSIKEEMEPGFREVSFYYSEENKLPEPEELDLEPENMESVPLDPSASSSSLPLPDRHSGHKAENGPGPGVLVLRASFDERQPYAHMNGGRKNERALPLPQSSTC

As to `CC1=C(C)C(=O)N(c2ccccc2/C=C/c2n[nH]c3ccccc23)C1=O` [Compound 204, (E)-1-{2-[2-(1H-indazol-3-yl)vinyl]phenyl}-3,4-dimethylpyrrole-2,5-dione], the inhibition (usually the drop in the measured response relative to a control, in per cent) at 10 µM came out at 99.8%. Same read-out and setting: as for `O=C1c2cccnc2C(=O)N1c1ccccc1/C=C/c1n[nH]c2ccccc12` [Compound 205, (E)-6-{2-[2-(1H-indazol-3-yl)vinyl]phenyl}pyrrolo[3,4-b]pyridine-5,7-dione], the figure is 89.8%. Still for that read-out and setting: as for `O=C1CCCCN1c1ccccc1/C=C/c1n[nH]c2ccccc12` [Compound 206, (E)-1-{2-[2-(1H-indazol-3-yl)vinyl]phenyl}piperidin-2-one], the figure is 101%; as for `O=C1C(Cl)=C(Cl)C(=O)N1c1ccccc1/C=C/c1n[nH]c2ccccc12` [Compound 207, (E)-3,4-dichloro-1-{2-[2-(1H-indazol-3-yl)vinyl]phenyl}pyrrole-2,5-dione], 98.1%. On to `O=C1CCCN1c1ccccc1/C=C/c1n[nH]c2ccccc12` [Compound 208, (E)-1-{2-[2-(1H-indazol-3-yl)vinyl]phenyl}pyrrolidin-2-one], for which the inhibition at 10 µM was 96.1%.

As to `O=C1c2ccsc2C(=O)N1c1ccccc1/C=C/c1n[nH]c2ccccc12` [Compound 209, (E)-5-{2-[2-(1H-indazol-3-yl)vinyl]phenyl}thieno[2,3-c]pyrrole-4,6-dione], the inhibition at 10 µM came to 99.5%. For `O=C1C2=C(CCC2)C(=O)N1c1ccccc1/C=C/c1n[nH]c2ccccc12` [Compound 210, (E)-2-{2-[2-(1H-indazol-3-yl)vinyl]phenyl}-5,6-dihydro-4H-cyclopenta[c]pyrrole-1,3-dione], the inhibition at 10 µM was 96.5%. For the compound `O=C1CCC(=O)N1c1ccccc1/C=C/c1n[nH]c2ccccc12` [Compound 211, (E)-1-{2-[2-(1H-indazol-3-yl)vinyl]phenyl}pyrrolidine-2,5-dione], the inhibition at 10 µM is 86.7%. As to `O=C1CNC(=O)N1c1ccccc1/C=C/c1n[nH]c2ccccc12` [Compound 212, (E)-3-{2-[2-(1H-indazol-3-yl)vinyl]phenyl}imidazolidine-2,4-dione], the inhibition at 10 µM was 83.6%.

On to `CS(=O)(=O)c1ccc(C(=O)Nc2ccccc2/C=C/c2n[nH]c3ccccc23)cc1` [Compound 215, (E)-N-{2-[2-(1H-indazol-3-yl)vinyl]phenyl}-4-methanesulfonylbenzamide], for which the inhibition at 10 µM stood at 81.2%. The same measure, in the same setting: as for `Cc1ccsc1C(=O)Nc1cc(C(=O)N2CC[C@@H](N)C2)ccc1/C=C/c1n[nH]c2ccccc12` [Compound 221, (E)-(R)—N-{2-[2-(1H-indazol-3-yl)vinyl]-5-(3-aminopyrrolidin-1-ylcarbonyl)phenyl}-3-methylthiophene-2-carboxamide hydrochloride], the figure is 95.8%. Take `Cc1ccsc1C(=O)Nc1ccc(N2CCOCC2)cc1/C=C/c1n[nH]c2ccccc12` [Compound 225, (E)-N-{2-[2-(1H-indazol-3-yl)vinyl]-4-(morpholin-4-yl)phenyl}-3-methylthiophene-2-carboxamide hydrochloride]: the inhibition at 10 µM stood at 95%. In the case of `Cn1cccc1C(=O)Nc1ccc(N2CCOCC2)cc1/C=C/c1n[nH]c2ccccc12` [Compound 226, (E)-N-{2-[2-(1H-indazol-3-yl)vinyl]-4-(morpholin-4-yl)phenyl}-1-methyl-1H-pyrrole-2-carboxamide hydrochloride], the inhibition at 10 µM was 97.8%. For `O=C1c2ccccc2C(=O)N1c1ccc(F)cc1/C=C/c1n[nH]c2ccccc12` [Compound 250, (E)-2-{4-fluoro-2-[2-(1H-indazol-3-yl)vinyl]phenyl}isoindole-1,3-dione], the inhibition at 10 µM came to 98.9%.

Regarding `O=C(Nc1cc(Cl)ccc1/C=C/c1n[nH]c2ccccc12)c1cccs1` [Compound 257, (E)-{5-chloro-2-[2-(1H-indazol-3-yl)vinyl]phenyl}thiophene-2-carboxamide], the “inhibitory activity (%) at 10 μmol/L” value worked out at 101.8%. For the compound `O=C1c2ccccc2C(=O)N1c1cc(Cl)ccc1/C=C/c1n[nH]c2ccccc12` [Compound 258, (E)-2-{5-chloro-2-[2-(1H-indazol-3-yl)vinyl]phenyl}isoindole-1,3-dione], the inhibition at 10 µM was 100%.

As to `O=C(c1ccc(/C=C/c2n[nH]c3ccccc23)c(N2C(=O)c3ccccc3C2=O)c1)N1CCOCC1` [Compound 276, (E)-N-{2-[2-(1H-indazol-3-yl)vinyl]-5-(morpholin-4-ylcarbonyl)phenyl}isoindole-1,3-dione], the inhibition at 10 µM stood at 99.6%. On to `CN(C)C(=O)c1ccc(/C=C/c2n[nH]c3ccccc23)c(N2C(=O)c3ccccc3C2=O)c1` [Compound 285, (E)-3-(1,3-dioxo-1,3-dihydroisoindol-2-yl)-4-[2-(1H-indazol-3-yl)vinyl]-N,N-dimethylbenzamide], for which the inhibition at 10 µM turned out to be 99%. Consider `O=C(c1ccc(/C=C/c2n[nH]c3ccccc23)c(N2C(=O)c3ccccc3C2=O)c1)N1CCN(CCO)CC1` [Compound 286, (E)-2-[5-[4-(2-hydroxyethyl)piperazin-1-ylcarbonyl]-2-[2-(1H-indazol-3-yl)vinyl]phenyl]isoindole-1,3-dione], for which the inhibition at 10 µM worked out at 96.1%. For the compound `CN1CCN(C(=O)c2ccc(/C=C/c3n[nH]c4ccccc34)c(N3C(=O)c4ccccc4C3=O)c2)CC1` [Compound 287], the “inhibitory activity (%) at 10 μmol/L” value was found to be 97.1%. As for `O=C(Nc1cc(C(=O)N2CCN(CCCO)CC2)ccc1/C=C/c1n[nH]c2ccccc12)c1ccco1` [Compound 291, (E)-N-{5-[4-(3-hydroxypropyl)piperazin-1-ylcarbonyl]-2-[2-(1H-indazol-3-yl)vinyl]phenyl}furan-2-carboxamide], the inhibition at 10 µM was determined as 97.7%. For the compound `O=C1c2ccccc2C(=O)N1c1cc(N2CCN(CCO)CC2)ccc1/C=C/c1n[nH]c2ccccc12` [Compound 299, (E)-2-{5-[4-(2-hydroxyethyl)piperazin-1-yl]-2-[2-(1H-indazol-3-yl)vinyl]phenyl}isoindole-1,3-dione], the inhibition at 10 µM came out at 92.9%.

On to `Nc1cccc2c1CN(c1cc(CN3CCN(CCCO)CC3)ccc1/C=C/c1n[nH]c3ccccc13)C2=O` [Compound 314, (E)-4-amino-2-{5-[4-(3-hydroxypropyl)piperazin-1-ylmethyl]-2-[2-(1H-indazol-3-yl)vinyl]phenyl}-2,3-dihydroisoindole-1-one], for which the inhibition at 10 µM was found to be 102%. In the case of `CN1CCN(C(=O)c2ccc(/C=C/c3n[nH]c4ccccc34)c(N3Cc4cccc(N)c4C3=O)c2)CC1` [Compound 316, (E)-7-amino-2-{2-[2-(1H-indazol-3-yl)vinyl]-5-(4-methylpiperazin-1-ylcarbonyl)phenyl}-2,3-dihydroisoindole-1-one], the inhibition at 10 µM worked out at 103%. On the same count and under the same terms, as for `Nc1cccc2c1CN(c1cc(C(=O)N3CCOCC3)ccc1/C=C/c1n[nH]c3ccccc13)C2=O` [Compound 324, (E)-4-amino-2-{2-[2-(1H-indazol-3-yl)vinyl]-5-(morpholin-4-ylcarbonyl)phenyl}-2,3-dihydroisoindole-1-one], the figure is 102%. Regarding `Nc1cccc2c1CN(c1cc(CN3CCN(CCO)CC3)ccc1/C=C/c1n[nH]c3ccccc13)C2=O` [Compound 345, (E)-4-amino-2-{5-[4-(2-hydroxyethyl)piperazin-1-ylmethyl]-2-[2-(1H-indazol-3-yl)vinyl]phenyl}-2,3-dihydroisoindole-1-one], the inhibition at 10 µM was 105%. Regarding `Cc1c(C(=O)Nc2ccccc2/C=C/c2n[nH]c3ccccc23)sc2ccccc12` [Compound 351, (E)-{2-[2-(1H-indazol-3-yl)vinyl]phenyl}-3-methylbenzo[b]thiophene-2-carboxamide], the “inhibitory activity (%) at 10 μmol/L” value turned out to be 99.1%. For `CS(=O)(=O)c1ccc(C(=O)Nc2ccccc2/C=C/c2n[nH]c3ccccc23)s1` [Compound 354, (E)-N-{2-[2-(1H-indazol-3-yl)vinyl]phenyl}-5-(methylsulfonyl)thiophene-2-carboxamide], the inhibition at 10 µM is 97.1%.
